This passage reports IC50 results from patent US8173631B2, “Cyclic amine compounds” (Daiichi Sankyo Company, Limited, priority 2008, dated 2012).

This experiment deals with T1, human calcium-sensing receptor (CaSR) (Homo sapiens, UniProt P41180).
T1 construct: expressed in transfected cells
T1 sequence (P41180 20-1078): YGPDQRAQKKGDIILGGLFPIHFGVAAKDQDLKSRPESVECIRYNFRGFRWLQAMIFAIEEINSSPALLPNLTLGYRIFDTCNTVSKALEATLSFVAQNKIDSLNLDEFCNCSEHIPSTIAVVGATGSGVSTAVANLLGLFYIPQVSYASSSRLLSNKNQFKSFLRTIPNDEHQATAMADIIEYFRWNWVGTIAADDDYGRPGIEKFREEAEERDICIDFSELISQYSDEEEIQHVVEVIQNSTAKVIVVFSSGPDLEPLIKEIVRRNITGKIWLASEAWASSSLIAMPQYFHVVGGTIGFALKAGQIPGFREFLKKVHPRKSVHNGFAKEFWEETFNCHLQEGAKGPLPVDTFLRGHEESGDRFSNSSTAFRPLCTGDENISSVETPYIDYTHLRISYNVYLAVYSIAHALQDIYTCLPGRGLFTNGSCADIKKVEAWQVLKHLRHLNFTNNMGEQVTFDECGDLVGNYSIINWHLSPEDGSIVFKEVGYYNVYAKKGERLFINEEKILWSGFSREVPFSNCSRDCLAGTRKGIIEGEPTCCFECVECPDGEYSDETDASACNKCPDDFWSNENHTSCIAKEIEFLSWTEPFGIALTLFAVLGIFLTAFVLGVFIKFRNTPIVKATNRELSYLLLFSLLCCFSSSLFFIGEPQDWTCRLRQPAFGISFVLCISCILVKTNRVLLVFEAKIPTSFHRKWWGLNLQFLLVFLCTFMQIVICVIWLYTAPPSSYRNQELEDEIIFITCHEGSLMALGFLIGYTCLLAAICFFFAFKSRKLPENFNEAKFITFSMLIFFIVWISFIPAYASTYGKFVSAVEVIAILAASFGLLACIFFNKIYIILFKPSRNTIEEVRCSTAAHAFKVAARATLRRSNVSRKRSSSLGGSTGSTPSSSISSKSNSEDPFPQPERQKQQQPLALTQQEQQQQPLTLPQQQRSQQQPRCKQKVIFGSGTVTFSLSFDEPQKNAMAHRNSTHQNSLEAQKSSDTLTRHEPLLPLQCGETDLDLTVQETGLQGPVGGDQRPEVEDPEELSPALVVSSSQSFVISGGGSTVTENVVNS
The experiment in a line: Inhibitory activity on calcium-sensing receptor (CaSR), intracellular calcium increase as indicator (FLIPR, CHO/hCaSR). Type of experiment: cell-based. The settings on record: CHO cells stably expressing human CaSR; inhibition of intracellular Ca increase induced by extracellular CaCl2. As for the experimental part:
Evaluation of inhibitory activity on calcium-sensing receptor (CaSR) using intracellular calcium increase as an indicator
The preparation which is prepared by adding CHO/hCaSR to F12 medium (manufactured by Invitrogen) containing 10% fetal bovine serum to have 2×10^5 cells/mL was applied to a 384-well in an amount of 50 μL/well, and then incubated overnight in a CO2 incubator. The culture supernatant was completely removed, the assay buffer (20 mM HEPES, HBSS (Ca and Mg free) containing 2.5 mM probenecid, pH 7.4) containing Calcium 3 (manufactured by Molecular Devices), i.e., a fluorescent intracellular calcium indicator, was added thereto in an amount of 25 μL/well, and the mixture was maintained for 1 hour in a CO2 incubator. Meanwhile, Calcium 3 was prepared according to the protocol enclosed in FLIPR Calcium 3 Assay Kit (manufactured by Molecular Devices). After maintaining it for 1 hour, a solution in which the test compound is prepared to have 2.1 to 20,000 nM (final concentration of 1.05 to 10,000 nM) by an assay buffer was added thereto in an amount of 25 μL/well, and maintained for 15 minutes in a CO2 incubator. Then, the CaCl2 solution prepared to have […] by using the assay buffer was added in an amount of 25 μL/well, and the resulting intracellular Ca increase (i.e., fluorescence intensity) was measured over time using a fluorescence imaging plate reader (FLIPR, manufactured by Molecular Devices). From the data obtained, the difference between the fluorescence intensity before the addition of CaCl2 solution and the maximum fluorescence intensity after the addition of CaCl2 solution was calculated, and the 50% inhibition concentration (IC50) of the test compound was obtained.

Where only a bound is given, the exact number is not on record here.

The IC50 is the concentration at which inhibition is half-maximal. Take `CC[C@@H](OC[C@H](O)CN1CCC[C@H]1Cc1ccc(Cl)c(Cl)c1)c1cccc(OC)c1CCC(=O)O` [Example 115]: the half-maximal inhibitory concentration (IC50) was no more than 3.05 µM.

`CCc1cc(C[C@@H]2CCCN2C[C@@H](O)CO[C@H](CC)c2cccc(OC)c2CCC(=O)O)ccc1Cl` [Example 116]: the IC50 is no more than 3.09 µM.

As to `CC[C@@H](OC[C@H](O)CN1CCC[C@H]1Cc1ccc(Cl)c(Cl)c1)c1cc(F)c(F)cc1CCC(=O)O` [Example 117], the IC50 was no more than 3.02 µM.

Take `CC[C@@H](OC[C@H](O)CN1CCC[C@H]1Cc1ccc(Cl)c(Cl)c1)c1cc(F)c(C)cc1CCC(=O)O` [Example 118]: the IC50 is no more than 3.04 µM.

Take `CCc1cc(C[C@@H]2CCCN2C[C@@H](O)CO[C@H](CC)c2cc(F)c(C)cc2CCC(=O)O)ccc1Cl` [Example 119]: the IC50 is no more than 3.08 µM.

Turning to `CC[C@@H](OC[C@H](O)CN1CCC[C@H]1Cc1ccc(Cl)c(Cl)c1)c1cccc(C)c1CCC(=O)O` [Example 120], the IC50 is no more than 3.15 µM.

Regarding `CCc1cc(C[C@@H]2CCCN2C[C@@H](O)CO[C@H](CC)c2cc(F)c(F)cc2CCC(=O)O)ccc1Cl` [Example 121], the 50% inhibitory concentration (IC50) was no more than 3.05 µM.

As to `CCc1cc(C[C@@H]2CCCN2C[C@@H](O)CO[C@H](CC)c2cccc(C)c2CCC(=O)O)ccc1Cl` [Example 122], the IC50 is no more than 3.19 µM.

As to `CCC[C@@H](OC[C@H](O)CN1CCC[C@H]1Cc1ccc(C)c(F)c1)c1cc(Cl)ccc1CCC(=O)O` [Example 123], the IC50 was no more than 3.16 µM.

Turning to `CCC[C@@H](OC[C@H](O)CN1CCC[C@H]1Cc1ccc(C)c(F)c1)c1ccc(Cl)cc1CCC(=O)O` [Example 124], the 50% inhibitory concentration (IC50) was no more than 3.16 µM.

With `CCC[C@@H](OC[C@H](O)CN1CCC[C@H]1Cc1ccc(C)c(F)c1)c1cccc(Cl)c1CCC(=O)O` [Example 125], the IC50 was no more than 3.16 µM.

Regarding `Cc1ccc([C@@H](C)OC[C@H](O)CN2CCC[C@H]2Cc2ccc(C)c(Cl)c2)c(CCC(=O)O)c1` [Example 126], the concentration for half-maximal inhibition (IC50) was no more than 3.38 µM.

Take `Cc1ccc(C[C@@H]2CCCN2C[C@@H](O)CO[C@H](C)c2ccc(Cl)cc2CCC(=O)O)cc1Cl` [Example 127]: the IC50 was no more than 3.24 µM.

For `Cc1ccc([C@@H](C)OC[C@H](O)CN2CCC[C@H]2Cc2ccc(Cl)c(F)c2)c(CCC(=O)O)c1` [Example 128], the concentration for half-maximal inhibition (IC50) is no more than 3.35 µM.

For `CC[C@@H](OC[C@H](O)CN1CCC[C@H]1Cc1ccc(C)c(Cl)c1)c1ccc(Cl)cc1CCC(=O)O` [Example 129], the 50% inhibitory concentration (IC50) was no more than 3.15 µM.

For the compound `C[C@@H](OC[C@H](O)CN1CCC[C@H]1Cc1ccc(Cl)c(F)c1)c1cc(F)ccc1CCC(=O)O` [Example 130], the IC50 was no more than 3.32 µM.

For the compound `C[C@@H](OC[C@H](O)CN1CCC[C@H]1Cc1ccc(Cl)c(F)c1)c1ccc(Cl)cc1CCC(=O)O` [Example 131], the IC50 is no more than 3.21 µM.

In the case of `Cc1ccc(C[C@@H]2CCCN2C[C@@H](O)CO[C@H](C)c2cc(F)cc(F)c2CCC(=O)O)cc1Cl` [Example 132], the IC50 is no more than 3.23 µM.

For `C[C@@H](OC[C@H](O)CN1CCC[C@H]1Cc1ccc(Cl)c(F)c1)c1cc(F)cc(F)c1CCC(=O)O` [Example 133], the IC50 is no more than 3.2 µM.

`CC[C@@H](OC[C@H](O)CN1CCC[C@H]1Cc1ccc(C)c(Cl)c1)c1cc(F)ccc1CCC(=O)O` [Example 134]: the IC50 was no more than 3.25 µM.

As to `CC[C@@H](OC[C@H](O)CN1CCC[C@H]1Cc1ccc(Cl)c(F)c1)c1cc(F)ccc1CCC(=O)O` [Example 135], the half-inhibitory concentration (IC50) was no more than 3.23 µM.

In the case of `CC[C@@H](OC[C@H](O)CN1CCC[C@H]1Cc1ccc(C)c(Cl)c1)c1ccc(C)cc1CCC(=O)O` [Example 136], the 50% inhibitory concentration (IC50) was no more than 3.28 µM.

As for `CC[C@@H](OC[C@H](O)CN1CCC[C@H]1Cc1ccc(Cl)c(F)c1)c1ccc(Cl)cc1CCC(=O)O` [Example 137], the IC50 was no more than 3.12 µM.

As to `CC[C@@H](OC[C@H](O)CN1CCC[C@H]1Cc1ccc(C)c(Cl)c1)c1cccc(F)c1CCC(=O)O` [Example 138], the IC50 is no more than 3.25 µM.

Turning to `CC[C@@H](OC[C@H](O)CN1CCC[C@H]1Cc1ccc(Cl)c(F)c1)c1cccc(F)c1CCC(=O)O` [Example 139], the 50% inhibitory concentration (IC50) was no more than 3.23 µM.

Regarding `CC[C@@H](OC[C@H](O)CN1CCC[C@H]1Cc1ccc(C)c(Cl)c1)c1cc(F)cc(F)c1CCC(=O)O` [Example 140], the half-maximal inhibitory concentration (IC50) is no more than 3.14 µM.

With `CC[C@@H](OC[C@H](O)CN1CCC[C@H]1Cc1ccc(Cl)c(F)c1)c1cc(F)cc(F)c1CCC(=O)O` [Example 141], the IC50 is no more than 3.11 µM.

Consider `CC[C@@H](OC[C@H](O)CN1CCC[C@H]1Cc1ccc(C)c(Cl)c1)c1cccc(Cl)c1CCC(=O)O` [Example 142], for which the half-maximal inhibitory concentration (IC50) is no more than 3.15 µM.

For the compound `CC[C@@H](OC[C@H](O)CN1CCC[C@H]1Cc1ccc(Cl)c(F)c1)c1cccc(Cl)c1CCC(=O)O` [Example 143], the 50% inhibitory concentration (IC50) is no more than 3.12 µM.

As for `CC[C@@H](OC[C@H](O)CN1CCC[C@H]1Cc1ccc(C)c(Cl)c1)c1cc(F)c(F)cc1CCC(=O)O` [Example 144], the IC50 is no more than 3.14 µM.

On to `CC[C@@H](OC[C@H](O)CN1CCC[C@H]1Cc1ccc(Cl)c(F)c1)c1cc(F)c(F)cc1CCC(=O)O` [Example 145], for which the IC50 is no more than 3.11 µM.

Take `CCc1cc(C[C@@H]2CCCN2C[C@@H](O)CO[C@H](C)c2cc(F)c(C)cc2CCC(=O)O)ccc1Cl` [Example 146]: the IC50 was no more than 3.16 µM.

For the compound `CCc1cc(C[C@@H]2CCCN2C[C@@H](O)CO[C@H](C)c2cc(F)c(F)cc2CCC(=O)O)ccc1Cl` [Example 147], the half-inhibitory concentration (IC50) was no more than 3.14 µM.

On to `Cc1cc(CCC(=O)O)c([C@@H](C)OC[C@H](O)CN2CCC[C@H]2Cc2ccc(Cl)c(F)c2)cc1F` [Example 148], for which the half-inhibitory concentration (IC50) was no more than 3.23 µM.

Turning to `C[C@@H](OC[C@H](O)CN1CCC[C@H]1Cc1ccc(Cl)c(F)c1)c1cc(F)c(F)cc1CCC(=O)O` [Example 149], the half-inhibitory concentration (IC50) was no more than 3.2 µM.

For the compound `Cc1ccc(C[C@@H]2CCCN2C[C@@H](O)CO[C@H](C)c2cccc(Cl)c2CCC(=O)O)cc1Cl` [Example 150], the IC50 was no more than 3.24 µM.

Regarding `C[C@@H](OC[C@H](O)CN1CCC[C@H]1Cc1ccc(Cl)c(Cl)c1)c1cccc(Cl)c1CCC(=O)O` [Example 151], the IC50 was no more than 3.11 µM.

`CCc1cc(C[C@@H]2CCCN2C[C@@H](O)CO[C@H](C)c2cccc(Cl)c2CCC(=O)O)ccc1Cl` [Example 152]: the concentration for half-maximal inhibition (IC50) is no more than 3.15 µM.

Take `C[C@@H](OC[C@H](O)CN1CCC[C@H]1Cc1ccc(Cl)c(F)c1)c1cccc(Cl)c1CCC(=O)O` [Example 153]: the half-maximal inhibitory concentration (IC50) is no more than 3.21 µM.

As for `CC[C@@H](OC[C@H](O)CN1CCC[C@H]1Cc1ccc(C)c(F)c1)c1cc(F)c(F)cc1CCC(=O)O` [Example 154], the IC50 was no more than 3.24 µM.

For the compound `CC[C@@H](OC[C@H](O)CN1CCC[C@H]1Cc1ccc(C)c(F)c1)c1cc(F)cc(F)c1CCC(=O)O` [Example 155], the concentration for half-maximal inhibition (IC50) is no more than 3.24 µM.

As for `Cc1ccc(C[C@@H]2CCCN2C[C@@H](O)CO[C@H](C)c2cc(F)c(Cl)cc2CCC(=O)O)cc1F` [Example 156], the IC50 was no more than 3.23 µM.

In the case of `Cc1ccc(C[C@@H]2CCCN2C[C@@H](O)COC(C)c2c(Cl)cccc2CCC(=O)O)cc1F` (stereo partly shown) [Example 157], the IC50 is no more than 3.35 µM.

For `C[C@@H](OC[C@H](O)CN1CCC[C@H]1Cc1ccc(Cl)c(F)c1)c1ccccc1CCC(=O)O` [Example 159], the half-inhibitory concentration (IC50) was no more than 3.45 µM.

Take `C[C@@H](OC[C@H](O)CN1CCC[C@H]1Cc1ccc(Cl)c(Cl)c1)c1ccc(Cl)cc1CCC(=O)O` [Example 160]: the 50% inhibitory concentration (IC50) was no more than 3.11 µM.

For `CCc1cc(C[C@@H]2CCCN2C[C@@H](O)CO[C@H](C)c2ccc(Cl)cc2CCC(=O)O)ccc1Cl` [Example 161], the IC50 is no more than 3.15 µM.
